Experimental data as given in ChEMBL document CHEMBL5543095 (Eur J Med Chem, 2024).

Key:
Huh-7 = experiment: Antiproliferative activity against human Huh-7 cells assessed as inhibition of cell growth inhibition incubated for 48 hrs by CCK-8 assay; format: functional, cell-based; conditions: Huh-7, 48 h
U-87 MG [1] = experiment: Antiproliferative activity against human U87 cells assessed as inhibition of cell growth inhibition incubated for 48 hrs by CCK-8 assay; format: functional, cell-based, U-87MG ATCC
A549 = experiment: Antiproliferative activity against human A549 cells assessed as inhibition of cell growth inhibition incubated for 48 hrs by CCK-8 assay; format: functional, cell-based; conditions: A549, 48 h
[2] = Cytotoxicity against HUVEC cells assessed as inhibition of cell growth inhibition incubated for 48 hrs by CCK-8 assay; format: toxicity, cell-based; conditions: human
U-87 MG [3] = experiment: Induction of cell cycle arrest in human U87 cells assessed as accumulation of cells at […] at 25 nM measured after 48 hrs by PI staining based flow cytometry analysis (reference value: 8.55%); format: functional, U-87MG ATCC
U-87 MG [4] = experiment: Induction of cell cycle arrest in human U87 cells assessed as accumulation of cells at G1 phase at 25 nM measured after 48 hrs by PI staining based flow cytometry analysis (reference value: 72.6%); format: functional, U-87MG ATCC
[5] = Apparent permeability across apical to basolateral side in MDCK-MDR1 cells at 10 uM incubated for 90 mins by LC-MS/MS analysis; format: ADME, cell-based, Canis lupus familiaris; conditions: dog
[6] = Apparent permeability across basolateral to apical side in MDCK-MDR1 cells at 10 uM incubated for 90 mins by LC-MS/MS analysis; format: ADME, cell-based, Canis lupus familiaris; conditions: dog
P-gp = experiment: Substrate activity at P-gp in MDCK-MDR1 cells assessed as efflux ratio of apparent permeability across basolateral to apical side over apical to basolateral side at 10 uM incubated for 90 mins by LC-MS/MS analysis; format: ADME, cell-based, Canis lupus familiaris; conditions: dog
[7] = Toxicity in C57BL/6 mouse implanted with mouse GL261-Luc cells assessed as reduction in body weight at 5 mg/kg, iv administered every other day on day 0,2,4,6,8,10 and measured after 12 days; format: organism-based; conditions: in vivo, 288 h, time 12 day
[8] = Toxicity in C57BL/6 mouse implanted with mouse GL261-Luc cells assessed as reduction in body weight at 5 to 10 mg/kg, iv administered every other day on day 0,2,4,6,8,10 and measured after 12 days; format: organism-based; conditions: in vivo, 288 h, dose 5-10 mg/kg, time 12 day

Row | Compound | IC50 (Huh-7) [µM] | IC50 (U-87 MG [1]) [µM] | IC50 (A549) [µM] | Papp A→B at 1.5 h, 10 µM [5] [×10⁻⁶ cm/s] | Papp B→A at 1.5 h, 10 µM [6] [×10⁻⁶ cm/s] | efflux ratio at 1.5 h, 10 µM (P-gp) | IC50 at 48 h [2] [µM] | Activity (U-87 MG [3]) [%] | Activity (U-87 MG [4]) [%] | Activity [7] | Activity [8]
1 | COc1ccc(C2C(C#N)=C(N)Oc3c2cc(Cl)c2cccnc32)cc1OC (centres undefined) | > 10 | > 10 | > 10 | – | – | – | > 10 | – | – | – | –
2 | Cc1ccc2ccc3c(c2n1)OC(N)=C(C#N)C3c1ccc(Cl)cc1 (centres undefined) | 5.31 | 8.08 | > 10 | – | – | – | > 10 | – | – | – | –
3 | N#CC1=C(N)Oc2c(ccc3cccnc23)C1c1ccc(Cl)cc1 (centres undefined) | > 10 | > 10 | > 10 | – | – | – | > 10 | – | – | – | –
4 | N#CC1=C(N)Oc2c(ccc3cccnc23)C1c1ccc(Br)cc1 (centres undefined) | > 10 | > 10 | > 10 | – | – | – | > 10 | – | – | – | –
5 | COc1cc2c(c(OC)c1OC)-c1ccc(OC)c(=O)cc1[C@@H](NC(C)=O)CC2 [COLCHICINE] | – | – | – | – | – | – | – | 46.5 | 19.7 | – | –
6 | Cc1ccc(C2C(C#N)=C(N)Oc3c2ccc2ccc(C)nc32)cc1 (centres undefined) | 5.51 | 6.12 | 3.05 | – | – | – | 9.02 | – | – | – | –
7 | COc1cc(OC)c(C2C(C#N)=C(N)Oc3c2ccc2ccc(C)nc32)cc1OC (centres undefined) | 4.64 | 4.68 | 8.13 | – | – | – | 7.87 | – | – | – | –
8 | Cc1ccc2ccc3c(c2n1)OC(N)=C(C#N)C3c1ccc(C(C)C)cc1 (centres undefined) | 6.34 | 4.28 | 4.57 | – | – | – | > 10 | – | – | – | –
9 | C[C@H]1O[C@@H](O[C@H]2[C@@H](O)C[C@H](O[C@H]3[C@@H](O)C[C@H](O[C@H]4CC[C@@]5(C)[C@H](CC[C@@H]6[C@@H]5C[C@@H](O)[C@]5(C)[C@@H](C7=CC(=O)OC7)CC[C@]65O)C4)O[C@@H]3C)O[C@@H]2C)C[C@H](O)[C@@H]1O [DIGOXIN] | – | – | – | 0.49 | 18 | 36.9 | – | – | – | – | –
10 | Cc1ccc(C2C(C#N)=C(N)Oc3c2ccc2cccnc32)cc1 (centres undefined) | > 10 | > 10 | > 10 | – | – | – | > 10 | – | – | – | –
11 | COc1ccc(C2C(C#N)=C(N)Oc3c2ccc2cccnc32)c(OC)c1OC (centres undefined) | > 10 | > 10 | > 10 | – | – | – | > 10 | – | – | – | –
12 | N#CC1=C(N)Oc2c(ccc3cccnc23)C1c1ccc(F)cc1 (centres undefined) | > 10 | > 10 | > 10 | – | – | – | > 10 | – | – | – | –
13 | Cn1nnc2c(C(N)=O)ncn2c1=O [TEMOZOLOMIDE] | – | – | – | 30.6 | 31.8 | 1.04 | – | – | – | Non-Toxic | Non-Toxic
14 | N#CC1=C(N)Oc2c(cc(Cl)c3cccnc23)C1c1ccc(F)cc1 (centres undefined) | > 10 | > 10 | > 10 | – | – | – | > 10 | – | – | – | –
15 | COc1ccc(C2C(C#N)=C(N)Oc3c2ccc2ccc(C)nc32)cc1OC (centres undefined) | > 10 | 4.85 | > 10 | – | – | – | > 10 | – | – | – | –
16 | Cc1ccc2ccc3c(c2n1)OC(N)=C(C#N)C3c1ccc(Br)cc1 (centres undefined) | > 10 | > 10 | 8.12 | – | – | – | > 10 | – | – | – | –
17 | N#CC1=C(N)Oc2c(cc(Cl)c3cccnc23)C1c1ccc(Br)cc1 (centres undefined) | > 10 | > 10 | > 10 | – | – | – | > 10 | – | – | – | –
18 | Cc1ccc(C2C(C#N)=C(N)Oc3c2cc(Cl)c2cccnc32)cc1 (centres undefined) | > 10 | > 10 | > 10 | – | – | – | > 10 | – | – | – | –
19 | COc1ccc(C2C(C#N)=C(N)Oc3c2cc(Cl)c2cccnc32)c(OC)c1OC (centres undefined) | > 10 | > 10 | > 10 | – | – | – | > 10 | – | – | – | –
20 | CC[C@@]1(O)C(=O)OCc2c1cc1n(c2=O)Cc2cc3cc(O)ccc3nc2-1 [HYDROXYCAMPTOTHECIN] | 1.35 | 2.92 | 0.12 | – | – | – | 0.92 | – | – | – | –
21 | CC(C)c1ccc(C2C(C#N)=C(N)Oc3c2ccc2cccnc32)cc1 (centres undefined) | > 10 | > 10 | > 10 | – | – | – | > 10 | – | – | – | –
22 | CC(C)c1ccc(C2C(C#N)=C(N)Oc3c2cc(Cl)c2cccnc32)cc1 (centres undefined) | > 10 | > 10 | > 10 | – | – | – | > 10 | – | – | – | –
23 | COc1ccc(C2C(C#N)=C(N)Oc3c2ccc2ccc(C)nc32)c(OC)c1OC (centres undefined) | 4.89 | 5.27 | 6.16 | – | – | – | > 10 | – | – | – | –

Continued, in another order:

Row | IC50 (Huh-7) [µM] | IC50 (U-87 MG [1]) [µM] | IC50 (A549) [µM] | Papp A→B at 1.5 h, 10 µM [5] [×10⁻⁶ cm/s] | Papp B→A at 1.5 h, 10 µM [6] [×10⁻⁶ cm/s] | efflux ratio at 1.5 h, 10 µM (P-gp) | Compound | IC50 at 48 h [2] [µM] | Activity (U-87 MG [3]) [%] | Activity (U-87 MG [4]) [%] | Activity [7] | Activity [8]
24 | 2 | 7.87 | 3.25 | – | – | – | Cc1ccc2ccc3c(c2n1)OC(N)=C(C#N)C3c1ccc(F)cc1 (centres undefined) | 7.58 | – | – | – | –
25 | 1.25 | 1.98 | 1.24 | – | – | – | Cc1ccc2ccc3c(c2n1)OC(N)=C(C#N)C3c1ccc(Cl)c(Cl)c1 (centres undefined) | 8.17 | – | – | – | –
26 | 2.6 | 2.87 | 1.59 | – | – | – | COc1cc(C2C(C#N)=C(N)Oc3c2ccc2ccc(C)nc32)cc(OC)c1Br (centres undefined) | > 10 | – | – | – | –
27 | 2.95 | > 10 | > 10 | – | – | – | COc1ccc(C2C(C#N)=C(N)Oc3c2ccc2cccnc32)cc1OC (centres undefined) | > 10 | – | – | – | –
28 | 2.22 | 3.69 | > 10 | – | – | – | Cc1ccc2ccc3c(c2n1)OC(N)=C(C#N)C3c1cccc(Cl)c1Cl (centres undefined) | > 10 | – | – | – | –
29 | 2.14 | 4.13 | 6.42 | – | – | – | N#CC1=C(N)Oc2c(cc(Cl)c3cccnc23)C1c1ccc(Cl)c(Cl)c1 (centres undefined) | > 10 | – | – | – | –
30 | 4.57 | > 10 | > 10 | – | – | – | N#CC1=C(N)Oc2c(cc(Cl)c3cccnc23)C1c1ccc(Cl)cc1 (centres undefined) | 7.65 | – | – | – | –
31 | 0.3 | 4.38 | 9.66 | – | – | – | N#CC1=C(N)Oc2c(cc(Cl)c3cccnc23)C1c1ccccc1 (centres undefined) | > 10 | – | – | – | –
32 | 2.35 | 6.18 | 4.95 | – | – | – | N#CC1=C(N)Oc2c(ccc3cccnc23)C1c1ccc(Cl)c(Cl)c1 (centres undefined) | 8.23 | – | – | – | –
33 | 2.47 | > 10 | > 10 | – | – | – | N#CC1=C(N)Oc2c(ccc3cccnc23)C1c1ccccc1 (centres undefined) | > 10 | – | – | – | –
34 | 3.46 | 5.93 | 2.44 | – | – | – | CCc1ccc(C2C(C#N)=C(N)Oc3c2ccc2ccc(C)nc32)cc1 (centres undefined) | > 10 | – | – | – | –
